In patent US5962480A, “Drug for ameliorating brain diseases” (Wakunaga Pharmaceutical Co., Ltd., priority 1995, dated 1999) one finds viability data, which are given here for twelve compounds.

For this assay, the system named is hippocampus neurons. Put plainly: inhibition of reduction in survival rate of neurons, hippocampus (number of surviving cells). Format: cell-based, rat. Conditions: Rattus norvegicus, Neuron, 72 h, control 100%, read-out: Inhibitory effect against reduction in survival rate of neurons (survival rate class); for viability at 10 µg/mL: 10^-5 g/ml; for viability at 1 µg/mL: 10^-6 g/ml; for viability at 0.1 µg/mL: 10^-7 g/ml; for viability at 0.01 µg/mL: 10^-8 g/ml; for viability at 0.001 µg/mL: 10^-9 g/ml. As for the experimental part: From a rat at the 18th day of pregnancy (having an 18 -day old embryo) the uterus was aseptically removed under etherification, and the fetus was obtained. The whole brain was collected from the fetus. From the brain placed in an L-15 medium were removed under a microscope the hippocampus, striate body, septum, cerebral cortex, and cerebellum. They were respectively minced with a knife. The minced tissue was treated by the addition of trypsin (0.25%) and DNase (0.01%) for 30 minutes at 37° C. to thereby isolate cells. The thus-isolated cells were suspended in Eagle's MEM medium supplemented with 10% fetal calf serum, and inoculated at a concentration of 4×10^4 cells/cm^2 into wells of a 48-well plate which had been coated with poly-L-lysin in advance. Following incubation for 24 hours, the medium was replaced by a serum-free DMEM/F-12 medium containing the drug. After three-days' additional incubation (six days for the striate body), the cells were fixed, stained, and the number of surviving cells in each well was counted. Compounds (2) through (14) were tested analogously to Example 1 using hippocampus cells prepared in a manner similar to Example 1. As structural comparative compounds, the following compounds were used: 4H-pyran-4-one (hereinafter referred as Compound (15) and 3-methoxy-6 -hydroxymethyl-4H-pyran-4-one (hereinafter referred to as Compound (16)).

Structures can show the parent of a compound that is named as a salt.

Turning to `Cc1cc(=O)c(O)co1` [Compound (2), 3-Hydroxy-6-methyl-4H-pyran-4-one], the viability at 10 µg/mL lay in the range of 130 to 150%, the viability at 1 µg/mL lay in the range of 110 to 130%, the viability at 0.1 µg/mL lay in the range of 90 to 110% and the viability at 0.01 µg/mL was 90 to 110%. Also, the viability at 0.001 µg/mL lay within 90 to 110%.
As for `CCCc1oc(C)cc(=O)c1O` [Compound (4), 3-Hydroxy-6-methyl-2-propyl-4H-pyran-4-one], the viability at 1 µg/mL is 90 to 110%, the viability at 0.1 µg/mL lay within 110 to 130%, the viability at 0.01 µg/mL was in the range of 90 to 110% and the viability at 0.001 µg/mL was in the range of 90 to 110%.
Take `CCCCCc1oc(C)cc(=O)c1O` [Compound (5), 3-Hydroxy-6-methyl-2-pentyl-4H-pyran-4-one]: the viability at 1 µg/mL is at most 90%, the viability at 0.1 µg/mL was 110 to 130%, the viability at 0.01 µg/mL lay in the range of 90 to 110% and the viability at 0.001 µg/mL was 90 to 110%.
With `Cc1cc(=O)c(O)c(CO)o1` [Compound (6), 3-Hydroxy-6-methyl-2-hydroxymethyl-4H-pyran-4-one], the viability at 10 µg/mL was in the range of 110 to 130%, the viability at 1 µg/mL was 110 to 130%, the viability at 0.1 µg/mL lay within 110 to 130% and the viability at 0.01 µg/mL is 90 to 110%. Moreover, the viability at 0.001 µg/mL fell in the range of 90 to 110%.
Consider `Cc1cc(=O)c(O)c(CN(C)C)o1` [Compound (7), 3-Hydroxy-6-methyl-2-dimethylaminomethyl-4H-pyran-4-one-HCl], for which the viability at 10 µg/mL was 110 to 130%, the viability at 1 µg/mL fell in the range of 110 to 130%, the viability at 0.1 µg/mL was in the range of 90 to 110% and the viability at 0.01 µg/mL is 90 to 110%. Besides, the viability at 0.001 µg/mL lay in the range of 90 to 110%.
For `O=c1cc(CO)occ1O` [Compound (8), 3-Hydroxy-6-hydroxymethyl-4H-pyran-4-one], the viability at 10 µg/mL was 110 to 130%, the viability at 1 µg/mL is 110 to 130%, the viability at 0.1 µg/mL is 90 to 110% and the viability at 0.01 µg/mL is 90 to 110%. Moreover, the viability at 0.001 µg/mL fell in the range of 90 to 110%.
As for `CCCCCc1oc(CO)cc(=O)c1O` [Compound (9), 3-Hydroxy-6-hydroxymethyl-2-pentyl-4H-pyran-4-one], the viability at 10 µg/mL was 110 to 130%, the viability at 1 µg/mL was in the range of 90 to 110%, the viability at 0.1 µg/mL was 90 to 110% and the viability at 0.01 µg/mL lay within 90 to 110%. Also, the viability at 0.001 µg/mL fell in the range of 90 to 110%.
`CCCCC(O)c1oc(CO)cc(=O)c1O` (stereo not drawn) [Compound (10), 3-Hydroxy-6-hydroxymethyl-2-(1'-hydroxypentyl)-4H-pyran-4-one]: the viability at 10 µg/mL fell in the range of 130 to 150%, the viability at 1 µg/mL lay in the range of 110 to 130%, the viability at 0.1 µg/mL is 90 to 110% and the viability at 0.01 µg/mL was in the range of 90 to 110%. In addition, the viability at 0.001 µg/mL was 90 to 110%.
As to `CCCCCc1oc(C)c(O)c(=O)c1O` [Compound (11), 3,5-Dihydroxy-6-methyl-2-pentyl-4H-pyran-4-one], the viability at 1 µg/mL is at most 90%, the viability at 0.1 µg/mL lay in the range of 130 to 150%, the viability at 0.01 µg/mL lay within 90 to 110% and the viability at 0.001 µg/mL is 90 to 110%.
Regarding `O=c1cc(C=Cc2ccccc2)occ1O` [Compound (12), 3-Hydroxy-6-styryl-4H-pyran-4-one], the viability at 10 µg/mL is at most 90%, the viability at 1 µg/mL was in the range of 110 to 130%, the viability at 0.1 µg/mL was 110 to 130% and the viability at 0.01 µg/mL fell in the range of 90 to 110%. The viability at 0.001 µg/mL lay in the range of 90 to 110%.
Turning to `CC1=CC(=O)C(O)C=N1` (stereo not drawn) [Compound (13), 3-Hydroxy-6-methyl-4-pyridone], the viability at 10 µg/mL was in the range of 130 to 150%, the viability at 1 µg/mL is 110 to 130%, the viability at 0.1 µg/mL was 90 to 110% and the viability at 0.01 µg/mL lay in the range of 90 to 110%. In addition, the viability at 0.001 µg/mL is 90 to 110%.
`O=C1C=C(CO)N=CC1O` (stereo not drawn) [Compound (14), 3-Hydroxy-6-hydroxymethyl-4-pyridone]: the viability at 10 µg/mL was in the range of 110 to 130%, the viability at 1 µg/mL lay within 90 to 110%, the viability at 0.1 µg/mL was in the range of 90 to 110% and the viability at 0.01 µg/mL fell in the range of 90 to 110%. Moreover, the viability at 0.001 µg/mL is 90 to 110%.
